According to patent US20190031676A1, “ANTIBACTERIAL ANNULATED PYRROLIDIN-2-ONE DERIVATIVES” (priority 2015, published 2019):
In brackets after ≈: the same amount, converted by molar mass. Read-outs that look alike come from different tables or passages of the source.

Experiments:
Assay type in all cases: cell-based
wild-type E. coli A-1261 = experiment: MIC against wild-type E. coli A-1261 with or without alkaline phosphatase or esterase (prodrug activation); conditions: Escherichia coli
Procedure: Minimal Inhibitory Concentrations (MICs; mg/L) were determined in cation-adjusted Mueller-Hinton Broth by a microdilution method following the description given in “Methods for Dilution Antimicrobial Susceptibility Tests for Bacteria that grow Aerobically”, Approved standard, 7th ed., Clinical and Laboratory Standards Institute (CLSI) Document M7-A7, Wayne, Pa., USA (2006). The compounds of Examples 4 and 16 were tested against wild-type E. coli A-1261 in the absence of alkaline phosphatase or esterase, in the presence of an alkaline phosphatase, and in the presence of an esterase. The corresponding antibacterial test results are given in Table 2 hereafter (MICs in mg/L).

P. aeruginosa ATCC27853 = experiment: Bacterial growth minimal inhibitory concentration (microdilution, cation-adjusted Mueller-Hinton Broth); conditions: Pseudomonas aeruginosa, ATCC27853; quinolone-sensitive strain
Procedure: (§1) Minimal Inhibitory Concentrations (MICs; mg/L) were determined in cation-adjusted Mueller-Hinton Broth by a microdilution method following the description given in “Methods for Dilution Antimicrobial Susceptibility Tests for Bacteria that grow Aerobically”, Approved standard, 7th ed., Clinical and Laboratory Standards Institute (CLSI) Document M7-A7, Wayne, Pa., USA (2006).
(§2) All Example compounds were tested against several Gram-positive and Gram-negative bacteria. […] K. pneumoniae A-651 is a multiply-resistant strain (in particular quinolone-resistant), while E. coli ATCC25922 and P. aeruginosa ATCC27853 are quinolone-sensitive strains.

E. coli ATCC25922 = experiment: as above; conditions: Escherichia coli, ATCC25922; quinolone-sensitive strain
Procedure: as §1, §2

K. pneumoniae A-651 = experiment: as above; conditions: Klebsiella pneumoniae, A651; multiply-resistant strain (in particular quinolone-resistant)
Procedure: as §1, §2

MIC (wild-type E. coli A-1261; alkaline phosphatase 2 i.U./mL, read-out: MIC for E. coli A-1261 In the presence of an alkaline phosphatase (2 i.U./mL)): 0.25 µg/mL
MIC (wild-type E. coli A-1261; esterase 10 i.U./mL, read-out: MIC for E. coli A-1261 In the presence of an esterase (10 i.U./mL)): 0.25 µg/mL
MIC (wild-type E. coli A-1261; no alkaline phosphatase or esterase, read-out: MIC for E. coli A-1261 In the absence of alkaline phosphatase or esterase): 0.125 µg/mL (≈ 0.267 µM)
MIC (P. aeruginosa ATCC27853): 0.5 µg/mL (≈ 1.07 µM)
MIC (E. coli ATCC25922): 0.25 µg/mL (≈ 0.534 µM)
MIC (K. pneumoniae A-651): 0.5 µg/mL (≈ 1.07 µM)
Compound: C[C@@](CCN1Cc2cc(C#CC#C[C@H]3C[C@]3(F)CO)sc2C1=O)(C(=O)NO)S(C)(=O)=O [Example 4, (2R)-4-(2-(((1R,2R)-2-fluoro-2-(hydroxymethyl)cyclopropyl)buta-1,3-diyn-1-yl)-6-oxo-4,6-dihydro-5H-thieno[2,3-c]pyrrol-5-yl)-N-hydroxy-2-methyl-2-(methylsulfonyl)butanamide]
